Laboratory results taken from US7625889B2, “Substituted bis aryl and heteroaryl compounds as selective 5HT2A antagonists” (Aventis Pharmaceuticals Inc., priority 2005, dated 2009).

Test system: newborn Sprague Dawley rats
Assay: Obstructive Sleep Apnea Studies (L-tryptophan plus pargyline)
Format: in vivo, rat
Procedure: Intraperitoneal application of L-tryptophan (10 mg/kg) and pargyline (50 mg/kg) to anaesthetized newborn rats depresses the amplitude of the inspiratory discharges of the genioglossal muscle and induces obstructive apneas (OA). The following procedure describes how to determine the efficacy of the compounds of this invention when compared with the efficacy of theophylline.
Experiments are carried out on newborn Sprague Dawley rats. The animals are anaesthetized by intraperitoneal injection of low doses of sodium pentobarbitone (7-10 mg/kg), kept lying (dorsal cubitus) on a warming blanket and are spontaneously ventilating.
The electromyogram (EMG) activity of the genioglossal muscles and the diaphragm are recorded with fine insulated wires (bipolar recordings) inserted within the muscles, filtered (100-3,000 Hz), amplified (×5-10,000) and integrated (time constant 50 ms). The rib cage movements are recorded via a captor gently touching the lower ribs and/or the abdominal wall. The air flow changes resulting from the respiratory chest movements are recorded via a facial mask and a highly sensitive pressure recorder. […]
Effects of theophylline pre-treatment on the occurrence of obstructive apneas induced by 1-tryptophan and pargyline injection are measured as follows: Five newborn rats receive theophylline at 10 mg/kg and 5 other animals receive theophylline at 30 mg/kg. […]

Cn1c(=O)c2[nH]cnc2n(C)c1=O [theophylline]
induction of OAs after L-Trp+Prg injection (theophylline 10 or 30 mg/kg): not prevented
depression of amplitude of GG inspiratory discharges by L-Trp+Prg injection (theophylline pre-treatment 10 mg/kg or 30 mg/kg): not prevented
